# Patent US20210154170A1, “METHODS OF TREATING NEUROPATHIC PAIN” (Biogen MA Inc., priority 2018, published 2021)
# Like-named read-outs stand apart in the source and are kept apart here.
# What was measured:
# [1] = tested on: rat model of inflammation (mechanical hypersensitivity); format: in vivo
# Procedure: For all doses, the C Trough is higher than efficacious doses in animal model of inflammation. […] FCA1, an oral dose of 1 mg/kg was the minimal effective dose in this model. TGN (trigeminal neuralgia), PLSR (painful lumbosacral radiculopathy).
# In this model, inflammation was induced by intraplantar injection of Freud Complete Adjuvant.
# Mechanical hypersensitivity was then assessed using weight bearing.
# trigeminal neuralgia = details: TN, 150 mg tid; cited from earlier work
# [2] = tested on: patients with lumbosacral radiculopathy; details: PLSR, 350 mg bid, Phase 2, cited from earlier work
# rats = assay: Tyramine-induced hypertension; format: in vivo, rat; details: data not shown
# Excerpt: (§1) The 36 day treatment duration in this study was rationally designed to determine whether tolerance developed for any potential effects of BIIB074 on SBP or DBP, since BP effects resolved by day 28 in the earlier phase 1 trial. The data from this study show a slight trend towards a decrease in the BP difference between BIIB074 and placebo between day 4 and day 35, although differences were minimal at all time points. […] Thus, the body of evidence, encompassing clinical and preclinical studies, supports safety and minimal effects of BIIB074 on BP/cardiovascular parameters.
# healthy subjects = assay: Phase 1 valproic acid interaction study, safety and tolerability
# Excerpt: • To evaluate the safety and tolerability of BIIB074 when administered alone and when coadministered with the UGT inhibitor valproic acid. • The endpoints that relate to this objective are the incidence of adverse events (AEs) and serious adverse events (SAEs), and changes in clinical laboratory parameters, vital signs, 12-lead electrocardiograms (ECGs), and Columbia Suicide Severity Rating Scale (C-SSRS) assessments. • To evaluate the effect of the UGT inhibitor valproic acid on the PK of the M13, M14, and M16 metabolites of BIIB074. • The endpoints that relate to this objective are: Cmax, AUCinf, AUClast, Tmax, Tlast, t1/2, and metabolite to parent ratio in AUC (MRAUC) of the M13, M14, and M16 metabolites of BIIB074
# 1. A single oral dose of BIIB074 administered in the morning on Days 1 and 16 following an 8-hour fast. The Day 16 dose was coadministered with the morning dose of valproic acid. 2. Valproic acid 500 mg TID was administered on Days 8 through 22. The morning dose on Day 16 was coadministered with BIIB074 following an 8-hour fast. 3. Blood samples for BIIB074 and metabolite PK collected predose and through 168 hours postdose on Days 1 through 8 and Days 16 through 23. 4. Single blood samples collected on Days 13 through 15 prior to the morning dose of valproic acid only, in order to determine valproic acid trough levels.
# dogs = assay: Preclinical safety pharmacology, cardiovascular parameters; format: in vivo, dog; details: data not shown
# Excerpt: as §1
# healthy participants = assay: Phase 1 cross-over study, ambulatory blood pressure monitoring (ABPM); format: in vivo, human; details: one-sided 95% CI excluding effect ≥5 mmHg
# [3] = Free fraction of Example 1 in plasma; format: in vitro ADME; details: human
compound,measurement,setting,value
"Cl.NC(=O)[C@@H]1CC[C@H](c2ccc(OCc3ccccc3F)cc2)N1 [Example 1, (5R)-5-(4-{[(2-Fluorophenyl)methyl]oxy}phenyl)-L-prolinamide hydrochloride]",Reversal of mechanical hypersensitivity,[1]; 5 mg/kg oral,fully reversed
same,Human scaled equivalent total plasma exposure where robust efficacy was observed,"[1]; rat, in vivo",786 ng/mL
same,Clinical efficacy,trigeminal neuralgia,EFFICACY OBSERVED in TN
same,Clinical efficacy,[2]; hydrochloride,EFFICACY OBSERVED in
same,Clinical efficacy,"[2]; listed as CNV1014802, hydrochloride",demonstrated clinical benefit
same,Effects on tyramine-induced hypertension,rats,no effects
same,Abdominal pain,"healthy subjects; human, in vivo",0 n (%)
same,Asthenia,"healthy subjects; human, in vivo",0 n (%)
same,Cardiac disorders,"healthy subjects; human, in vivo",0 n (%)
same,Diarrhoea,"healthy subjects; human, in vivo",0 n (%)
same,Dizziness,"healthy subjects; human, in vivo",0 n (%)
same,Dyspepsia,"healthy subjects; human, in vivo",0 n (%)
same,Events leading to drug withdrawal,"healthy subjects; human, in vivo",0 n (%)
same,Events leading to study withdrawal,"healthy subjects; human, in vivo",0 n (%)
same,Faeces soft,"healthy subjects; human, in vivo",0 n (%)
same,Gastrointestinal disorders,"healthy subjects; human, in vivo",1 (3.3) n (%)
same,General disorders and administration site conditions,"healthy subjects; human, in vivo",0 n (%)
same,Glossodynia,"healthy subjects; human, in vivo",1 (3.3) n (%)
same,Headache,"healthy subjects; human, in vivo",1 (3.3) n (%)
same,Nausea,"healthy subjects; human, in vivo",0 n (%)
same,Nervous system disorders,"healthy subjects; human, in vivo",1 (3.3) n (%)
same,Non-cardiac chest pain,"healthy subjects; human, in vivo",0 n (%)
same,Number of subjects with any event,"healthy subjects; human, in vivo",2 (6.7) n (%)
same,Pallor,"healthy subjects; human, in vivo",0 n (%)
same,Palpitations,"healthy subjects; human, in vivo",0 n (%)
same,Pruritus,"healthy subjects; human, in vivo",0 n (%)
same,Related event,"healthy subjects; human, in vivo",0 n (%)
same,Related serious event,"healthy subjects; human, in vivo",0 n (%)
same,Serious event,"healthy subjects; human, in vivo",0 n (%)
same,Severity: Mild,"healthy subjects; human, in vivo",2 (6.7) n (%)
same,Severity: Moderate,"healthy subjects; human, in vivo",0 n (%)
same,Severity: Severe,"healthy subjects; human, in vivo",0 n (%)
same,Skin and subcutaneous tissue disorders,"healthy subjects; human, in vivo",0 n (%)
same,TEAEs considered related to BIIB074,"healthy subjects; human, in vivo",No TEAEs were considered related to BIIB074
same,Vascular disorders,"healthy subjects; human, in vivo",0 n (%)
same,Vomiting,"healthy subjects; human, in vivo",0 n (%)
same,Safety conclusion,healthy subjects; in vivo,safe and well tolerated
same,Fatal event,healthy subjects; per treatment period,0 n (%)
same,Effects on cardiovascular parameters,dogs,no effects
same,"Non-inferiority to placebo, inpatient ABPM",healthy participants,non-inferiority of BIIB074 compared with placebo was demonstrated
same,fraction unbound,[3]; listed as 150 mg tid,0.032
same,fraction unbound,[3]; listed as 200 mg bid,0.036
same,fraction unbound,[3]; listed as 250 mg tid,0.032
same,fraction unbound,[3]; listed as 350 mg bid,0.032
